Active and inactive are the calls of the source. The rule behind the calls is not given here.
Experiments:
HCT-116 [1] = assay: Induction of cell cycle arrest in human HCT116 cells assessed as accumulation at G2/M phase after 24 hrs by RNase A/PI-staining based flow cytometric analysis; type: functional
[2] = Drug uptake in human A549 cells assessed as blue fluorescence at 5 uM after 12 hrs by confocal laser scanning microscopic analysis; type: ADME, cell-based; details: a549, 12 h
HCT-116 [3] = assay: Antitumor activity against human HCT116 cells xenografted in mouse assessed as reduction in tumor growth at 50 mg/kg, iv for 5 consecutive days per week and measured every 3 to 4 days up to 14 days; type: functional, organism-based
MIA PaCa-2 = assay: Antiproliferative activity against human MIAPaCa2 cells assessed as reduction in cell viability after 72 hrs by SRB assay; type: functional, cell-based; details: MIA PaCa-2, 72 h
[4] = Intrinsic clearance in human liver microsomes at 1 uM preincubated for 5 mins followed by NADPH addition and measured up to 360 mins by LC-MS/MS analysis; type: ADME, Microsome; details: 6 h
[5] = Half life in mouse plasma at 25 uM by HPLC analysis; type: ADME, cell-free
[6] = Half life of compound in PBS buffer at pH 6.0 at 50 uM by HPLC analysis; type: physicochemical
L02 = assay: Cytotoxicity agains human HL7702 cells assessed as reduction in cell viability after 72 hrs by SRB assay; type: cell-based; details: L02, 72 h
[7] = Metabolic stability in human liver microsomes assessed as compound remaining at 1 uM preincubated for 5 mins followed by NADPH addition and measured after 60 mins by LC-MS/MS analysis; type: ADME, Microsome; details: read-out: Stability
[8] = Drug uptake in human A549 cells assessed as maximum emission peaks at 430 nm at 5 uM by fluorescence emission spectral analysis; type: ADME, cell-based; details: a549, 5 µM
A549 [9] = assay: Antiproliferative activity against human A549 cells assessed as reduction in cell viability after 72 hrs by SRB assay; type: functional, cell-based; details: A549, 72 h
[10] = Clearance in BALB/c mouse at 50 mg/kg, iv after 5 to 24 hrs by LC-MS/MS analysis; type: ADME, organism-based; details: in vivo
A549 [11] = assay: Induction of cell cycle arrest in human A549 cells assessed as accumulation at G2/M phase after 24 hrs by RNase A/PI-staining based flow cytometric analysis; type: functional
[12] = Drug uptake in human A549 cells assessed as endocytosis-mediated total cellular drug internalization at 5 uM after 12 hrs by LC-MS/MS analysis relative to SN38; type: ADME, cell-based; details: a549, 12 h
CAPAN-1 [13] = assay: Antiproliferative activity against human Capan1 cells assessed as reduction in cell viability after 72 hrs by SRB assay; type: functional, cell-based; details: CAPAN-1, 72 h
HCT-116 [14] = assay: Antitumor activity against human HCT116 cells xenografted in mouse assessed as reduction in tumor volume at 50 mg/kg, iv for 5 consecutive days per week and measured every 3 to 4 days up to 14 days by microcaliper analysis relative to control; type: functional
HCT-116 [15] = assay: Downregulation of TOP1 expression in human HCT116 cells after 24 hrs by Western blot analysis; type: functional, cell-based
[16] = AUC(0 to infinity) in BALB/c mouse at 50 mg/kg, iv after 5 to 24 hrs by LC-MS/MS analysis; type: ADME, organism-based; parameters: dose 50 mg/kg, route intravenous, time infinity; details: in vivo
[17] = Half life in BALB/c mouse at 50 mg/kg, iv after 5 to 24 hrs by LC-MS/MS analysis; type: ADME, organism-based; details: in vivo
HCT-116 [18] = assay: Antitumor activity against human HCT116 cells xenografted in mouse assessed as tumor weight at 50 mg/kg, iv for 5 consecutive days per week and measured every 3 to 4 days up to 14 days (reference value: 1.73 +/- 0.53 g); type: functional
[19] = Drug uptake in human A549 cells assessed as endocytosis-mediated total cellular drug internalization at 5 uM after 12 hrs by LC-MS/MS analysis relative to irinotecan; type: ADME, cell-based; details: a549, 12 h
A549 [20] = assay: Ratio of prodrug release in human A549 cells assessed as increase in 7-ethyl-10-hydroxycamptothecin level at 5 uM after 12 hrs by LC-MS/MS analysis to prodrug release in human A549 cells assessed as increase in 7-ethyl-10-hydroxycamptothecin level at 5 uM after 1 hr by LC-MS/MS analysis; type: ADME, cell-based; details: a549, 5 µM
[21] = Apparent volume of distribution at steady state in BALB/c mouse at 50 mg/kg, iv after 5 to 24 hrs by LC-MS/MS analysis; type: ADME, organism-based; details: in vivo, read-out: Vdss(app)
HCT-116 [22] = assay: Antiproliferative activity against human HCT116 cells assessed as reduction in cell viability after 72 hrs by SRB assay; type: functional, cell-based; details: HCT-116, 72 h
[23] = Toxicity in mouse xenografted with human HCT116 cells assessed as body weight loss at 50 mg/kg, iv for 5 consecutive days per week and measured every 3 to 4 days up to 14 days relative to control; type: organism-based; details: in vivo
[24] = Half life in human plasma at 25 uM by HPLC analysis; type: ADME, cell-free
[25] = Half life in human liver microsomes at 1 uM preincubated for 5 mins followed by NADPH addition and measured up to 360 mins by LC-MS/MS analysis; type: ADME, Microsome
[26] = Half life of compound in PBS buffer at pH 7.4 at 50 uM by HPLC analysis; type: physicochemical
[27] = molecular target: Heat shock protein HSP 90-alpha (Homo sapiens, UniProt P07900); assay: biochemical
Description: Inhibition of recombinant human full length HSP90 alpha expressed in Escherichia coli cells after 1 hr by fluorescence polarization assay

Heat shock protein HSP90 [28] = molecular target: T1, Heat shock protein HSP90 (Homo sapiens, UniProt P07900+P08238); assay: Drug uptake in human A549 cells assessed as eHSP90-mediated drug internalization by measuring blue fluorescence in PBS solution at 5 uM after 1 to 12 hrs by confocal laser scanning microscopic analysis; type: ADME, cell-based; details: a549, 5 µM, TDE = time-dependent effect
[29] = Drug uptake in human A549 cells assessed as eHSP90-mediated total cellular drug internalization at 5 uM after 12 hrs by LC-MS/MS analysis; type: ADME, cell-based; details: a549, 12 h
[30] = Drug uptake in human A549 cells assessed as blue shift in absorption spectrum at 5 uM by UV-visible absorption spectral analysis; type: ADME, cell-based; details: a549, 5 µM
A549 [31] = assay: Downregulation of TOP1 expression in human A549 cells after 24 hrs by Western blot analysis; type: functional, cell-based
CAPAN-1 [32] = assay: Induction of cell cycle arrest in human Capan1 cells assessed as accumulation at G2/M phase after 24 hrs by RNase A/PI-staining based flow cytometric analysis; type: functional
[33] = Drug uptake in tumor of mouse xenografted with human HCT116 cells at 50 mg/kg, iv administered as single dose after 1 hr by LC-MS/MS analysis; type: ADME, organism-based, Neoplasm; details: in vivo
Heat shock protein HSP90 [34] = molecular target: T1, Heat shock protein HSP90; assay: Inhibition of HSP90 in human A549 cells assessed as downregulation of Akt expression at 0.008 to 1 uM after 24 hrs by Western blot analysis; type: cell-based
[35] = Toxicity in kidney of mouse xenografted with human Capan1 cells assessed as pathological changes at 50 mg/kg, iv for every 2 days measured at 2 hrs post last dose by H and E staining based analysis; type: organism-based; details: in vivo

CCc1c2c(nc3ccc(OC(=O)N4CCC(NC(=O)c5noc(-c6cc(C(C)C)c(O)cc6O)c5-c5ccc(CN6CCOCC6)cc5)CC4)cc13)-c1cc3c(c(=O)n1C2)COC(=O)[C@]3(O)CC
Activity (HCT-116 [1]): Dose-dependent effect
Drug uptake [2]: Active
Activity (HCT-116 [3]): Active
IC50 (MIA PaCa-2): 644 nM
CLH [4]: 4.9 mL/min/kg
half-life at 25 µM [5]: > 24 h
half-life at 50 µM [6]: > 24 h
IC50 (L02): 7360 nM
remaining at 1 h, 1 µM [7]: 87%
Drug uptake [8]: Active
IC50 (A549 [9]): 1110 nM
clearance [10]: 6.91 mL/min/kg
Activity (A549 [11]): Dose-dependent effect
fold change (FC) [12]: 1.6 to 1.9
IC50 (CAPAN-1 [13]): 6800 nM
T/C (HCT-116 [14]): 33.8%
inhibition (HCT-116 [15]): Dose-dependent effect
AUC(0-inf) [16]: 172 µg·h/mL
half-life [17]: 1.72 h
Activity (HCT-116 [18]): 0.47 g
fold change (FC) [19]: 2.8 to 3.8
Ratio (A549 [20]): 3.7
Vd [21]: 0.103 L/kg
IC50 (HCT-116 [22]): 614 nM
Activity [23]: < 20%
half-life at 25 µM [24]: > 24 h
half-life at 1 µM [25]: 2.6 h
half-life at 50 µM [26]: > 24 h
IC50 [27]: 164 nM
Drug uptake (Heat shock protein HSP90 [28]): Tde
Drug uptake [29]: Active
Drug uptake [30]: Active
TOP1 downregulation (A549 [31]): Dose-dependent effect
Activity (CAPAN-1 [32]): Dose-dependent effect

CCc1c2c(nc3ccc(O)cc13)-c1cc3c(c(=O)n1C2)COC(=O)[C@@]3(CC)OC(=O)CNC(=O)c1noc(-c2cc(C(C)C)c(O)cc2O)c1-c1ccc(CN2CCOCC2)cc1
Activity (HCT-116 [1]): Dose-dependent effect
Drug uptake [2]: Active
Activity (HCT-116 [3]): Active
IC50 (MIA PaCa-2): 46 nM
Drug uptake [33]: Not Active
CLH [4]: 5.7 mL/min/kg
inhibition (Heat shock protein HSP90 [34]): inactive
Activity [35]: Non-Toxic
half-life at 25 µM [5]: 10.5 h
half-life at 50 µM [6]: > 24 h
IC50 (L02): 6870 nM
remaining at 1 h, 1 µM [7]: 80%
Drug uptake [8]: Active
IC50 (A549 [9]): 56 nM
clearance [10]: 5.81 mL/min/kg
Activity (A549 [11]): Dose-dependent effect
fold change (FC) [12]: 1.6 to 1.9
IC50 (CAPAN-1 [13]): 36 nM
T/C (HCT-116 [14]): 16.7%
inhibition (HCT-116 [15]): Dose-dependent effect
AUC(0-inf) [16]: 148 µg·h/mL
half-life [17]: 1.31 h
Activity (HCT-116 [18]): 0.32 g
fold change (FC) [19]: 2.8 to 3.8
Ratio (A549 [20]): 4.3
Vd [21]: 0.101 L/kg
IC50 (HCT-116 [22]): 22 nM
Activity [23]: < 20%
half-life at 25 µM [24]: 13 h
half-life at 1 µM [25]: 2.1 h
half-life at 50 µM [26]: 10 h
IC50 [27]: 72 nM
Drug uptake (Heat shock protein HSP90 [28]): Tde
Drug uptake [29]: Active
Drug uptake [30]: Active
TOP1 downregulation (A549 [31]): Dose-dependent effect
Activity (CAPAN-1 [32]): Dose-dependent effect
